# Laboratory results: publication PMC5543107, “Inhibition of glutamate decarboxylase (GAD) by ethyl ketopentenoate (EKP) induces treatment-resistant epileptic seizures in zebrafish” (Scientific Reports, 2017)
# Values joined by “and” are separate entries in the source; they are usually repeats but may differ in a detail not shown here. Identical values can stand only once.
# Legend:
# GAD = biological target: GAD; parameters: method as in PMID 29640; settings: in vitro studies; read-out: Ki for GAD inhibition; cited from earlier work
# zebrafish larvae = test system: zebrafish larvae; parameters: method as in PMID 25845493; settings: AG 200 mM − 300 mM; cited from earlier work
# mice = test system: mice; parameters: method as in PMID 29640; settings: intracerebroventricular (icv) administration; cited from earlier work
# [1] = test system: EKP-treated zebrafish larvae; assay: Effect of ASDs on EKP-induced locomotion activity; format: in vivo, Danio rerio; settings: ASD at MTC, 18 h pre-incubation, 400 µM EKP
# Description: Then, the larvae were treated with 400 µM EKP (or VHC) and the locomotion activity was monitored for 30 min (after 5 min of habituation) as described earlier. The average amount of movement per 5-min intervals was measured, quantified and normalized to the EKP control group for the entire 30-min tracking session or per 5-min interval.
# [2] = test system: EKP-treated zebrafish larvae; assay: Effect of ASDs on EKP-induced epileptiform discharges (LFP); format: in vivo, Danio rerio; settings: ASD at MTC, 18 h pre-incubation, 400 µM EKP, 10-min LFP recording
# Description: Then, the larvae were treated with 400 µM EKP (or VHC), embedded in agarose, and the LFP recordings were performed as described earlier.
# [3] = test system: EKP-treated Tg(elavl3:GA) zebrafish larvae; assay: Effect of ASDs on EKP-induced neuroluminescent events; format: in vivo, Danio rerio; settings: ASD at MTC (ETS 250 µM, TGB 50 µM), 18 h, 400 µM EKP, 30-min recording
# Description: Recordings were performed as described earlier.
# c-fos expression = c-fos expression in larval heads by qPCR; format: in vivo, Danio rerio; settings: 7 dpf larval heads, 15 min, 400 μM EKP or 20 mM PTZ (positive control)
# Description: To measure the seizure-related changes in c-fos mRNA expression in the CNS, 12 larvae (7 dpf) were treated with either 20 mM PTZ, 400 μM EKP or VHC for 15 min and then rapidly decapitated. The heads were immediately processed for RNA isolation followed by cDNA synthesis as described for gad1b and gad2. qPCR analysis of c-fos mRNA expression using Bio-Rad 20x PrimePCR assays (c-fos assay ID: qDreCED0015103) was performed as described for gad1b and gad2, and normalized to the housekeeping gene ef1α and β-actin 1 (primers, Table S1).
# 7 dpf zebrafish larvae [4] = assay: EKP-induced locomotor activity, automated video tracking; format: in vivo, Danio rerio
# Description: Larvae (6 dpf) in 100 µl VHC were arrayed individually in a 96-well plate (tissue culture plate, flat bottom, Falcon, USA) and kept for 18 h in the dark at 28 °C. Prior to tracking the following day (7 dpf) 100 μl of VHC or EKP stock solution was added to each well to obtain a range of EKP concentrations (200 μM-800 μM). The plates were placed in an automated video tracking device (ZebraBox^TM apparatus; Viewpoint, Lyon, France) and 5 min later the locomotor behavior of the larvae was monitored for 2 h in the dark at 28 °C. Locomotor activity was quantified using ZebraLab™ software (Viewpoint, Lyon, France) and expressed in “actinteg” units per 5-min interval. The actinteg value is defined as the sum of all image pixel changes detected during the time window.
# These seizures are defined as rapid corkscrew-like accompanied with entire body jerking and twitching, which are easily distinguished from other behavioral abnormalities (for description of phase 1 and 3 seizures, see results).
# 7 dpf zebrafish larvae [5] = assay: Survival rate of larvae exposed to EKP; format: in vivo, Danio rerio; settings: 400 μM EKP, first 30 min
# Description: Larvae (7 dpf) were arrayed individually in a 96-well plate, exposed to EKP (200 μM-800 μM) or VHC (control) and immediately scored under a stereomicroscope for lethality every 5 min for 1 h.
# 7 dpf zebrafish larvae [6] = assay: Local field potential (LFP) recordings in the optic tectum after EKP; format: in vivo, Danio rerio
# Description: Larvae (6 dpf) in 100 µl VHC were arrayed individually in a 96-well plate and kept for 18 h in the dark at 28 °C. […] Next, the treated larva was embedded ventral side down in 2% low melting point agarose bathed in artificial cerebrospinal fluid (ACSF, 124 mM NaCl, 2 mM KCl, 2 mM MgSO4, 2 mM CaCl2, 1.25 mM KH2PO4, 26 mM NaHCO3, and 10 mM glucose). A blunt glass electrode (soda lime glass, Hilgenberg, Germany) was pulled with DMZ Universal Puller (Zeitz, Germany) to an opening of 15–20 microns, filled with ACSF and placed on the skin above the optic tectum. The recordings were performed using WinEDR (John Dempster, University of Strathclyde, UK). Differential signal was band pass filtered at 0.3–300 Hz and digitized at 2 kHz via a PCI-6251 interface (National Instruments, UK). LFP recordings started each time exactly 2 min after the removal of the larva from the EKP solution (or VHC) and were continued for 10 min at room temperature (24 °C).
# EKP-induced events were considered as epileptiform activity when their signal exceeded three times the baseline and lasted for minimum 100 msec, as described previously. Electrophysiological recordings were analyzed in a blinded way using Clampfit 10.2 software (Molecular Devices, USA).
# [7] = test system: Tg(elavl3:GA) zebrafish larvae; assay: Neuroluminescence recording of Tg(elavl3:eGFP-apoAequorin) larvae exposed to EKP; format: in vivo, Danio rerio; settings: 400 µM EKP, 30-min recording, vs VHC
# Description: Tg(elavl3:eGFP-apoAequorin) zebrafish larvae were visually screened for even GFP expression at 3 dpf. Selected larvae were incubated with VHC in 40 µM CLZN-h for 18–24 h in the dark at 28 °C[38]. Excess of CLZN-h was removed by washing larvae repeatedly in E3 medium afterwards. […] The recordings started each time exactly 5 min after EKP exposure and were continued for 30 min. Photons emitted were detected by a photon-counting tube (Type H3460–04, Hamamatsu Photonics, Japan) that was positioned about 2 cm above the larvae. Light impulses were discriminated, prescaled and counted with a PC-based 32-bit counter/timer board (PCI-6601, National Instruments Corporation, Austin, TX, USA). The number of impulses occurring during a 5-sec time interval was monitored with custom-built software. Analysis of the bioluminescence recordings was done in a blinded way.
# [8] = 7 dpf larvae, 200-800 μM tested
molecule,measurement,setting,value
"C=CCC(N)C(=O)O (stereo not drawn) [AG, 2-amino-4-pentenoic acid]",Ki,GAD,~50 mM
same,Outcome of seizures at high AG concentrations,zebrafish larvae,lethal
C=CC[C@@H](N)C(=O)O [D-AG],ED50 for seizure induction,mice,0.804 mg/kg
"C=CCC(=O)C(=O)O [KPA, 2-keto-4-pentenoic acid]",Ki,GAD,0.001 mM
same,ED50 for seizure induction,mice,0.0145 mg/kg
C=CC[C@H](N)C(=O)O [L-AG],ED50 for seizure induction,mice,0.375 mg/kg
"N#Cc1ccccc1-c1cc(-c2ccccn2)cn(-c2ccccc2)c1=O [PER, perampanel]",Effect on EKP-induced locomotion (whole 30-min recording),[1],significantly prevented
same,Effect on number of epileptiform discharges generated by EKP,[2],significantly attenuated
same,Effect on EKP-induced neuronal activity (cumulative photons emitted),[3],significantly diminished
"O=C1NC(=O)C(c2ccccc2)(c2ccccc2)N1 [PHT, phenytoin]",Effect on number of epileptiform discharges generated by EKP,[2],did not show significant effects
same,Effect on EKP-induced neuronal activity (cumulative photons emitted),[3],significantly diminished
"C1CCc2nnnn2CC1 [PTZ, Pentylenetetrazol]",c-fos expression compared to VHC,c-fos expression,significantly increased
"CCOC(=O)Nc1ccc(NCc2ccc(F)cc2)cc1N [RGB, retigabine]",Effect on number of epileptiform discharges generated by EKP,[2],did not show significant effects
same,Effect on EKP-induced neuronal activity (cumulative photons emitted),[3],significantly diminished
"CC1(C)O[C@@H]2[C@@H](CO[C@@]3(COS(N)(=O)=O)OC(C)(C)O[C@@H]23)O1 [TPM, topiramate]",Effect on number of epileptiform discharges generated by EKP,[2],significantly attenuated
same,Effect on EKP-induced neuronal activity (cumulative photons emitted),[3],significantly diminished
"NS(=O)(=O)Cc1noc2ccccc12 [ZSM, zonisamide]",Effect on number of epileptiform discharges generated by EKP,[2],significantly attenuated
same,Effect on EKP-induced neuronal activity (cumulative photons emitted),[3],significantly diminished
ethyl ketopentenoate [EKP],Locomotor activity,"7 dpf zebrafish larvae [4]; 400 μM EKP, 7 dpf larvae, vs VHC",robust increase of locomotor activity
same,EKP concentrations at which a second phase (hyperactivity plateau) followed,7 dpf zebrafish larvae [4]; [8],≥ 300 µM
same,"EKP concentrations with third phase (irreversible decline of total larval movement, paralysis, death)",7 dpf zebrafish larvae [4]; [8],300 to 800 µM
same,Fold lower concentration inducing hyperactivity compared with AG,"7 dpf zebrafish larvae [4]; zebrafish larvae, AG data ref 13",100 fold
same,Larval death,7 dpf zebrafish larvae [5],without inducing any larval death
same,Mean frequency of epileptiform events,"7 dpf zebrafish larvae [6]; 400 μM EKP 15 min, optic tectum, 10-min recording, n = 58",55.76 ± 6.87 events/10 min and 55.76 ± 6.872 events/10 min
same,Larvae with multiple epileptiform events,"7 dpf zebrafish larvae [6]; 400 μM EKP, number of larvae out of total",58/58
same,c-fos expression compared to VHC,c-fos expression,significantly increased
same,Averaged aequorin light signal,[7],increased
